{"source": "patent US20020165270A1", "about": "“Use of a pharmaceutical composition for treating and/or preventing ischemia” (priority 1997, published 2002)", "key": {"[1]": {"tested_on": "mitochondria isolated from the livers of untreated rats", "experiment": "RCR of mitochondria isolated from livers of untreated rats, preincubated one hour with the medicaments", "assay_type": "biochemical, rat", "details": "for way in which the RCR is increased (class I / class II): liver mitochondria of untreated rats preincubated for one hour; for Protective effect on the RCR (%): class I molecules, final concentrations: Ginkor Fort 0.3 mg/ml, Bilobalide 0.8 μg/ml, Reparil 75 ng/ml, Naphthoquinone 10^−7 M, Praxilene 10^−7 M, one hour preincubation", "description": "(§1) Different concentrations of active compounds of the invention (bilobalide) were tested on the RCR of the mitochondria which were isolated from rat brains. Five concentrations were employed: 4, 6, 8, 10 and 12 mg/kg of treated patient (rat). The rats were given these doses of bilobalide orally for 14 days. The mitochondria were isolated using the method described by Nowicki et al. (J. Cerebral Blood Flow and Metabolism, 2, pp. 33-40 (1982)). The respiration of the mitochondria is measured in a Clark oxygen electrode which is connected to a recording device. The RCR represents the respiratory control. It denotes the ratio between the consumption of oxygen in the presence of endogenous substrates (glutamate/malate) and the consumption after the ADP has been phosphorylated to ATP. This technique was developed by Chance and Williams (Nature, 175, pp. 1120-1121 (1955)). A dosedependent effect is obtained, with an increase of the RCR, of 3.7 in the case of the controls, to an RCR of 4.6 in the case of the 8 and 10 mg/kg concentrations. A maximum increase of 24% is obtained at 10 mg/kg.\nEach of the active compounds of the invention can, like bilobalide, increase the RCR of mitochondria which have been isolated from the livers of untreated rats when the mitochondria are preincubated for one hour in the presence of these medicaments. The active compounds can therefore act directly on the mitochondria."}, "[2]": {"tested_on": "complex I of the mitochondria", "experiment": "Protection of complex I inhibited by Amytal, measured via the RCR", "assay_type": "biochemical", "details": "for Protection of complex I (%): complex I 58% inhibited by 0.5 mM Amytal, 60 minute incubation, Ginkor Fort 0.3 mg/ml, Bilobalide 0.8 μg/ml, Reparil 75 ng/ml, Nafthoquinone 10^−7 M, Praxilene 10^−7 M, no medicament = 0%", "description": "(§2) The process of the oxidative phosphorylation of ATP is a complex process which involves different enzyme complexes or electron transporters, which generate a proton gradient (complexes I, III and IV), ATP synthases (complex V), which is directly responsible for synthesizing ATP, and adenine translocase, which is the transporter which is required for importing ADP and exporting ATP (FIG. 4).\nComplex I of the mitochondria was 58% inhibited by the presence of 0.5 mM Amytal. Under these conditions, the presence of the molecules at the indicated concentrations (60 minute incubation) results in an inhibition which is markedly less pronounced, with this having been expressed in percentage protection as compared with the mitochondria without medicament, which are regarded as having 0% protection."}, "[3]": {"tested_on": "complex III of the mitochondria", "experiment": "Protection of complex III inhibited by a specific inhibitor, measured via the RCR", "assay_type": "biochemical", "details": "Ginkor Fort 0.3 mg/ml, Bilobalide 0.8 μg/ml, Reparil 75 ng/ml, Nafthoquinone 10^−7 M, Praxilene 10^−7 M", "from_the_text": "as §2"}, "[4]": {"tested_on": "brain mitochondria", "experiment": "RCR of brain mitochondria of orally treated rats, normal conditions", "assay_type": "in vivo, rat", "description": "as §1"}, "[5]": {"tested_on": "brain mitochondria", "experiment": "RCR of brain mitochondria of treated rats after 15 minute ischemia", "assay_type": "in vivo, rat", "details": "10 mg/kg per os for 14 days; 15 minute ischemia by decapitation; glutamate/malate; controls 3", "description": "A 15 minute ischemia was performed on control rats and rats which have been treated with active compounds of the invention (bilobalides) for 14 days. The ischemia is performed by decapitation. The rats were treated per os with bilobalide doses of 10 mg/kg for 14 days. When the RCR is measured in the presence of glutamate/malate in the case of a 15 minute ischemia, an RCR of 3 is observed in the case of the controls, with an RCR of 3.9 being observed in the case of the treated rats. The active compound therefore has a protective action on the decrease in respiratory activity which is induced by the ischemia. This protection is manifested through the activity of complex I and of the mitochondrial transport chain. The level of respiratory control which is measured in the presence of glutamate/malate indirectly mirrors the activity of complex I of the electron transfer chain."}, "[6]": {"tested_on": "mitochondrial complex I", "experiment": "Activity of mitochondrial complex I (ferricytochrome C reduction) in brain mitochondria of treated rats", "assay_type": "in vivo, rat", "details": "10 mg/kg per os for 14 days; after 15 minute ischemia of the brain; controls 36", "description": "The measurement carried out on the mitochondrial complex I was performed by first of all sonicating the mitochondria in order to enable the assay substrates to gain access to the complex I. The latter is assayed by following the reduction of ferricytochrome C at 550 nm. The mitochondrial suspension, which is present in a […] K phosphate buffer, pH 7.4, containing MgCl2, 10 μm of cytochrome C and 2.5 mg of bovine albumin/ml, is sonicated for 30 seconds at 0° C. 2 mM of KCW [sic] is added and the reaction is started by adding 7.5 mM NADH. The mitochondria are incubated at 37° C. and the reduction of the ferricyanide [sic] is followed at 550 nm. A correction is made for the reduction of the cytochrome C in the presence of rotenone, which inhibits complex I. The results are expressed in μmol of ferricytochrome C reduced per minute.\nThe activity of complex I was measured on the mitochondria of rats which had been treated per os for 14 days with 10 mg of bilobalide/kg, and after a 15minute ischemia of the brain. An activity of 36 mU/mg of protein is obtained in the case of the control rats, whereas the mitochondria from treated rats have an activity of 44 mU/mg of protein."}, "[7]": {"tested_on": "liver mitochondria", "experiment": "RCR of liver mitochondria of rats treated per os", "assay_type": "in vivo", "details": "rat liver mitochondria; 8 mg/kg per os for 14 days; controls 7.6", "description": "(§3) The active compound of the invention (bilobalide) was administered per os to rats for 14 days at concentrations of 8 mg/kg of patient (rat). The liver mitochondria of these rats were isolated using the method described by Remacle (J. Cell. Biol. 79, 291, 1978). […] A 10 minute ischemia was performed on the livers by perfusion in a medium consisting of 0.137 M NaCl, 5.4 mM KCl, 0.8 mM MgSO4, 11 mM glucose, 0.34 mM Na2HP03, 24.4 mM NaHCO3, 6.35 mM KH2PO4 and 8 mg of bilobalide/l. The medium is first of all degassed under an atmosphere containing 95% N2 and 5% CO2. The mitochondria are isolated and their respiratory activity is determined."}, "[8]": {"tested_on": "liver mitochondria", "experiment": "RCR of liver mitochondria after 10 minute ischemia of the perfused liver", "assay_type": "in vivo, rat", "details": "8 mg/kg per os for 14 days; 10 minute liver ischemia, perfusion medium with 8 mg of bilobalide/l; controls 3.73", "description": "as §3\nFor the controls, the rats were given water for 14 days and the livers were perfused with the same solution as for the tests."}}}
{"compound": "COc1ccc(-c2cc(=O)c3c(O)cc(O[C@@H]4O[C@H](CO[C@@H]5O[C@@H](C)[C@H](O)[C@@H](O)[C@H]5O)[C@@H](O)[C@H](O)[C@H]4O)cc3o2)cc1O", "note": "[diosmin]", "values": [{"measurement": "way in which the RCR is increased (class I / class II)", "setting": "[1]", "result": "increase the RCR by decreasing stage 4 of respiration"}]}
{"compound": "aescin", "values": [{"measurement": "way in which the RCR is increased (class I / class II)", "setting": "[1]", "result": "increase the RCR by decreasing stage 4 of respiration"}]}
{"compound": "O=C1C=CC(=O)c2ccccc21", "note": "[Naphthoquinone, Nafthoquinone]", "values": [{"measurement": "Protective effect on the RCR (%)", "setting": "[1]", "result": "+19.7%"}, {"measurement": "way in which the RCR is increased (class I / class II)", "setting": "[1]", "result": "increase the RCR by decreasing stage 4 of respiration"}, {"measurement": "Protection of complex I (%)", "setting": "[2]", "result": 14.1, "unit": "%"}, {"measurement": "Protection of complex III (%)", "setting": "[3]", "result": 46.6, "unit": "%"}]}
{"compound": "CCC1(CCC(C)C)C(=O)NC(=O)NC1=O", "note": "[Amytal]", "values": [{"measurement": "inhibition of complex I of the mitochondria", "setting": "[2]; 0.5 mM Amytal", "result": 58, "unit": "%"}]}
{"compound": "o-(hydroxyethyl) rutosides [hydroxyethylrutosides]", "values": [{"measurement": "way in which the RCR is increased (class I / class II)", "setting": "[1]", "result": "increase the RCR by increasing stage 3 of respiration"}]}
{"compound": "CC(C)(C)[C@]1(O)CC2OC(=O)CC23C(=O)OC2OC(=O)[C@H](O)C231", "note": "(stereo partly drawn) [Bilobalide, bilobalide]", "values": [{"measurement": "maximum increase of the RCR", "setting": "[4]; 10 mg/kg orally for 14 days, versus controls", "result": 24, "unit": "%"}, {"measurement": "RCR", "setting": "[4]; rat brain mitochondria, 8 and 10 mg/kg orally for 14 days, glutamate/malate, controls 3.7", "result": 4.6}, {"measurement": "RCR", "setting": "[5]", "result": 3.9}, {"measurement": "activity of complex I", "setting": "[6]", "result": "44 mU/mg of protein"}, {"measurement": "RCR", "setting": "[7]", "result": 13.25}, {"measurement": "RCR", "setting": "[8]", "result": 5.24}, {"measurement": "Protective effect on the RCR (%)", "setting": "[1]", "result": "+22.7%"}, {"measurement": "way in which the RCR is increased (class I / class II)", "setting": "[1]", "result": "increase the RCR by decreasing stage 4 of respiration"}, {"measurement": "Protection of complex I (%)", "setting": "[2]", "result": 27.5, "unit": "%"}, {"measurement": "Protection of complex III (%)", "setting": "[3]", "result": 47.9, "unit": "%"}]}
